Source: ChEMBL document CHEMBL1135240, “Benzene fused monocyclic enediynyl amides: synthesis, reactivity and DNA-cleavage activity in comparison to the corresponding sulfonamides” (Bioorg Med Chem Lett, 2002)

Legend:
[1] = The compound was evaluated for rate constant at 70 deg. C; type: ADME
[2] = The compound was evaluated for half life at 70 deg. C; type: ADME

| Rate constant [1] | half-life [2] | SMILES |
| --- | --- | --- |
| 0.0143 h⁻¹ | 49 h | O=[N+]([O-])c1ccc(S(=O)(=O)N2CC#Cc3ccccc3C#CCC2)cc1 |
| 0.0051 h⁻¹ | 136 h | O=C(c1ccc([N+](=O)[O-])cc1)N1CC#Cc2ccccc2C#CCC1 |
| 0.0037 h⁻¹ | 188 h | O=C(c1ccccc1)N1CC#Cc2ccccc2C#CCC1 |
| 0.0244 h⁻¹ | 28 h | O=[N+]([O-])c1ccc(S(=O)(=O)N2CC#Cc3ccccc3C#CCC2)c([N+](=O)[O-])c1 |
